Results on 16 compounds are retold here after patent US20250034134A1, “15-PGDH INHIBITOR AND USE THEREOF” (Wuhan Humanwell Innovative Drug Research and Development …, priority 2021, published 2025).

Test [1] deals with 15-PGDH (Homo sapiens (Human), UniProt P15428). Put plainly: Inhibition test of compounds on 15-PGDH enzyme. The format is biochemical. The method, then: 15-PGDH (R&D Systems, Cat. No.: 5660-DH-010) was prepared to twice the final concentration, i.e., 30 nM, using Assay Buffer (50 mM Tris-HCl, pH 7.5, 0.01vol % Tween 20). The obtained mixture was then added to a 384-well white plate (Cisbio Bioassays, Cat. No. 66PL384025) at 8 μL/well. Negative control wells (with Assay Buffer only and without enzyme) were set. The compound was then prepared to 4 times the final concentration using Assay Buffer, i.e., diluted 3-fold to 10 concentrations starting from 4000 nM. The obtained mixture was added to the above white plate at 4 μL/well, mixed well, centrifuged at 1000 rpm for 1 minute, and incubated at 25° C. for 10 minutes. Both positive control wells (with 15-PGDH only) and negative control wells (without 15-PGDH) were set. A mixture of NAD^+(Select, Cat. No. S2518) and PGE2 (R&D Systems, Cat. No.: 2296/10) was then prepared using Assay Buffer. NAD^+ and PGE2 were prepared to four times their final concentrations, i.e., 2 mM and 0.12 mM, respectively, using Assay Buffer. The obtained mixture was then added to the above white plate at 4 μL/well, mixed well, centrifuged at 1000 rpm for 1 minute, and incubated at 25° C. for 30 minutes for the reaction. The fluorescence was detected at an excitation wavelength of 340 nm and an emission wavelength of 485 nm using instrument TECAN SPARK 20M. The IC50 value was calculated using four-parameter fitting with GraphPad Prism 8.0.

The subject of test [2] is A549 cells. Put plainly: Effect of compounds on PGE2 levels in A549 cell supernatant. The note with it: 20 nM compound, about 12 hours, after IL-10 stimulation; ELISA. The format is cell-based. The method, then: A549 cells (Procell, Wuhan) were cultured in F12K+10% FBS. The cells with good status in log phase were selected for the experiment, digested, counted, and inoculated into a 24-well plate at 8000 cells per well. The cells were cultured in a 37° C., 5% CO2 incubator overnight. After adherence, the cells were transferred to a culture medium containing 0.5% FBS and cultured for about 10 hours. IL-10 was added to each well (final concentration of 20 ng/mL, 1 mL per well), and a control group (without IL-10) was set up. After stimulation with IL-10 for about 24 hours, the cell culture medium of each well was aspirated and discarded, and the wells were gently washed with fresh culture medium containing 0.5% FBS. 400 μL of culture medium containing the compound of different concentrations (20 nM and 2500 nM) was added to each well and cultured for about 12 hours. The supernatant was collected and PGE2 was detected using ELISA kit (R&D Systems, Cat. No.: KGE004B).
A general note: In an ELISA, binding on a coated surface is turned into a signal by an enzyme label.

The test system of test [3] is IBD in mice. Kind of test: Efficacy on IBD in mice. The format is in vivo, mouse. Particulars: for DAI / body weight / inflammatory cell infiltration score of colon tissues / tissue injury score of colon tissues: vs G2 model group; for Colon weight CW (g): day 0 to day 9, DSS mice. The method, then: The mice in G2 to G6 were given 2% DSS aqueous solution on day 0 to day 6, normal water on […], vehicle/positive/test substance on day 0 to day 9, and euthanized on day 10 for necropsy. Colon weight (CW) and colon length (CL) were measured and colon tissues […] were subjected to histopathological examination.

pIC50: −log10 of the molar value.

Chain of 15-PGDH (P15428 whole entry): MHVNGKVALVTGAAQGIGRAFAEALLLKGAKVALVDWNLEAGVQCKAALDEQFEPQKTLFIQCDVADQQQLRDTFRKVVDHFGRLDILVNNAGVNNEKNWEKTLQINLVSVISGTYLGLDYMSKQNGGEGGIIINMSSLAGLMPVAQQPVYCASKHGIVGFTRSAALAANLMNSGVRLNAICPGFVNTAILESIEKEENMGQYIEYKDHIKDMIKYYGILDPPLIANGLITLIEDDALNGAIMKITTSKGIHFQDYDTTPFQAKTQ

Broadly, the pIC50 is the negative decadic logarithm of the IC50, by convention in mol/L. A lower pIC50 goes with a large IC50. With `O=C(c1cnc2c(c1)C1CC1CN2c1ccn2cnnc2c1)N1CCC(F)(F)CC1` (stereo not shown) [Compound I-17, (3-([1,2,4]triazolo[4,3-a]pyridin-7-yl)-1a,2,3,7b-tetrahydro-1H-cyclopropa[c][1,8]naphthyridin-6-yl)(4,4-difluoropiperidin-1-yl)methanone], the negative logarithm of the IC50 (pIC50) in test [1] was 8.35. For the same compound, the “Fold increase of PGE2 in A549 cell supernatant” value (“Fold increase of PGE2” below) in test [2] stood at 2.2.
`CCn1nc2cc(N3CC4CC4c4cc(C(=O)N5CCC(F)(F)CC5)cnc43)ccn2c1=O` (stereo not shown) [Compound I-32, 7-(6-(4,4-difluoropiperidine-1-carbonyl)-1,1a,2,7b-tetrahydro-3H-cyclopropa[c][1,8]naphthyridin-3-yl)-2-ethyl-[1,2,4]triazolo[4,3-a]pyridin-3(2H)-one] had a pIC50 in test [1] of 8.20. The “Fold increase of PGE2” value in test [2] is reported as 3.7.
Turning to `Cn1cnc2cc(N3CC4CC4c4cc(C(=O)N5CCC(F)(F)CC5)ccc43)cnc2c1=O` (stereo not shown) [Compound I-15, 7-(6-(4,4-difluoropiperidine-1-carbonyl)-1,1a,2,7b-tetrahydro-3H-cyclopropa[c]quinolin-3-yl)-3-methylpyrido[3,2-d]pyrimidin-4(3H)-one], the pIC50 in test [1] is 8.24. The “Fold increase of PGE2” value in test [2] came to 3.7.
In the same order, the values of `CN1C(=O)c2ncc(N3CC4CC4c4cc(C(=O)N5CCC(F)(F)CC5)cnc43)cc2C12CC2` (stereo not shown) [Compound I-19, 3′-(6-(4,4-difluoropiperidine-1-carbonyl)-1,1a,2,7b-tetrahydro-3H-cyclopropa[c][1,8]naphthyridin-3-yl)-6′-methylspiro[cyclopropane-1,5′-pyrrolo[3,4-b]pyridin]-7′(6′H)-one] are 8.43 and 4.72.
The compound `Cn1nc2cc(N3CC4CC4c4cc(C(=O)N5CCCC(C(F)F)C5)cnc43)ccn2c1=O` (stereo not shown) [Compound I-23, 7-(6-(3-(difluoromethyl)piperidine-1-carbonyl)-1,1a,2,7b-tetrahydro-3H-cyclopropa[c][1,8]naphthyridin-3-yl)-2-methyl-[1,2,4]triazolo[4,3-a]pyridin-3(2H)-one] had a pIC50 in test [1] of 8.37. Also, in test [2], the “Fold increase of PGE2” value amounted to 2.93.
In the same order, the values of `CN1Cc2cc(N3CC4CC4c4cc(C(=O)N5CCC(F)(F)CC5)cnc43)cnc2C1=O` (stereo not shown) [Compound I-2, 3-(6-(4,4-difluoropiperidine-1-carbonyl)-1,1a,2,7b-tetrahydro-3H-cyclopropa[c][1,8]naphthyridin-3-yl)-6-methyl-5,6-dihydro-7H-pyrrolo[3,4-b]pyridin-7-one] are 8.29 and 5.23.
Compound `Cn1nc2cc(N3CC4CC4c4cc(C(=O)N5CCCC(C(F)(F)F)C5)cnc43)ccn2c1=O` (stereo not shown) [Compound I-26, 2-methyl-7-(6-(3-(trifluoromethyl)piperidine-1-carbonyl)-1,1a,2,7b-tetrahydro-3H-cyclopropa[c] [1,8]naphthyridin-3-yl)-[1,2,4]triazolo[4,3-a]pyridin-3(2H)-one] showed a pIC50 in test [1] of 8.00. For the same compound, the “Fold increase of PGE2” value in test [2] stood at 4.82.
Turning to `N#Cc1ccc(N2CC3CC3c3cc(C(=O)N4CCC(F)(F)CC4)cnc32)cc1` (stereo not shown) [Compound I-11, 4-(6-(4,4-difluoropiperidine-1-carbonyl)-1,1a,2,7b-tetrahydro-3H-cyclopropa[c][1,8]naphthyridin-3-yl)benzonitrile], in test [1], the pIC50 was 8.42. Further, the “Fold increase of PGE2” value in test [2] amounted to 1.88.
Compound `Cn1nc2cc(N3CC4CC4c4cc(C(=O)N5CC6CC6C5)cnc43)ccn2c1=O` (stereo not shown) [Compound I-29, 7-(6-(3-azabicyclo[3.1.0]hexane-3-carbonyl)-1,1a,2,7b-tetrahydro-3H-cyclopropa[c][1,8]naphthyridin-3-yl)-2-methyl-[1,2,4]triazolo[4,3-a]pyridin-3(2H)-one] had a negative logarithm of the IC50 (pIC50) in test [1] of 8.28. Also, the “Fold increase of PGE2” value in test [2] came to 2.3.
Compound `Cn1nc2cc(N3CC4CC4c4cc(C(=O)N5CCC(F)(F)C5)cnc43)ccn2c1=O` (stereo not shown) [Compound I-21, 7-(6-(3,3-difluoropyrrolidine-1-carbonyl)-1,1a,2,7b-tetrahydro-3H-cyclopropa[c][1,8]naphthyridin-3-yl)-2-methyl-[1,2,4]triazolo[4,3-a]pyridin-3(2H)-one] had a pIC50 in test [1] of 8.31. For the same compound, the “Fold increase of PGE2” value in test [2] was found to be 2.3.
Compound `Cn1nc2cc(N3CC4CC4c4cc(C(=O)N5CC(C)(F)C5)cnc43)ccn2c1=O` (stereo not shown) [Compound I-20, 7-(6-(3-fluoro-3-methylazetidine-1-carbonyl)-1a,2-dihydro-1H-cyclopropa[c][1,8]naphthyridin-3(7bH)-yl)-2-methyl-[1,2,4]triazolo[4,3-a]pyridin-3(2H)-one] had a pIC50 in test [1] of 8.55. For the same compound, the “Fold increase of PGE2” value in test [2] was 2.0.
`Cn1ncc2cc(N3CC4CC4c4cc(C(=O)N5CCC(F)(F)CC5)ccc43)ccc2c1=O` (stereo not shown) [Compound I-13, 6-(6-(4,4-difluoropiperidine-1-carbonyl)-1,1a,2,7b-tetrahydro-3H-cyclopropa[c]quinolin-3-yl)-2-methylphthalazin-1(2H)-one] gave a pIC50 in test [1] of 8.39. Also, the “Fold increase of PGE2” value in test [2] is listed as 6.1.
As to `O=C(c1cnc2c(c1)C1CC1CN2c1ccn2ncnc2c1)N1CCC(F)(F)CC1` (stereo not shown) [Compound I-16, (3-([1,2,4]triazolo[1,5-a]pyridin-7-yl)-1a,2,3,7b-tetrahydro-1H-cyclopropa[c][1,8]naphthyridin-6-yl)(4,4-difluoropiperidin-1-yl)methanone], the pIC50 in test [1] was 8.27. Also, the “Fold increase of PGE2” value in test [2] was 3.7.
The corresponding values for `Cn1nc2cc(N3CC4CC4c4cc(C(=O)N5CCCC(F)C5)cnc43)ccn2c1=O` (stereo not shown) [Compound I-27, 7-(6-(3-fluoropiperidine-1-carbonyl)-1,1a,2,7b-tetrahydro-3H-cyclopropa[c][1,8]naphthyridin-3-yl)-2-methyl-[1,2,4]triazolo[4,3-a]pyridin-3(2H)-one] are 8.24 and 2.60.
The corresponding values for `Cn1nc2cc(N3CC4CC4c4cc(C(=O)N5CCC[C@H](CF)C5)cnc43)ccn2c1=O` (stereo partly drawn) [Compound I-31, 7-(6-((S)-3-(fluoromethyl)piperidine-1-carbonyl)-1,1a,2,7b-tetrahydro-3H-cyclopropa[c][1,8]naphthyridin-3-yl)-2-methyl-[1,2,4]triazolo[4,3-a]pyridin-3(2H)-one] are 8.39 and 2.90.
`Cn1nc2cc(N3CC4CC4c4cc(C(=O)N5CCC(F)(F)CC5)cnc43)ccn2c1=O` (single isomer, unassigned) [Compound I-3B]: in test [3] (G4, 2.5 mg/kg bid), the DAI result is reported as “significant decrease”, the body weight entry is “increase”, the “inflammatory cell infiltration score of colon tissues” value was “significant decrease” and the “tissue injury score of colon tissues” value is on record as “significant decrease”. Moreover, the “Colon weight CW (g)” value in test [3] (G4 low-dose, 2.5 mg/kg bid) is recorded as “significant decrease”. In test [3] (G5, 5 mg/kg bid), the DAI result is given as “significant decrease”, the body weight entry is recorded as “significant increase”, the “inflammatory cell infiltration score of colon tissues” value is “significant decrease” and the “tissue injury score of colon tissues” value is “significant decrease”. For the same compound, in test [3] (G5 high-dose, 5 mg/kg bid), the “Colon weight CW (g)” value is recorded as “significant decrease”.
